These results are taken from patent US12240838B2, “Inhibiting agents for Bruton's tyrosine kinase” (BIOGEN MA INC., priority 2019, dated 2025).

The structures appear in SMILES notation.

Assay [1] deals with T1, BTK (Homo sapiens (Human), UniProt Q06187). Kind of assay: In Vitro BTK Kinase Assay: BTK-POLYGAT-LS ASSAY. In kind it is biochemical. The settings on record: ATP 10 μM, polyGAT 100 nM, BTK 0.25 nM, 30 minutes. The procedure:
The purpose of the BTK in vitro assay is to determine compound potency against BTK through the measurement of IC50. […] The BTK kinase reaction was done in a black 96 well plate (costar 3694). For a typical assay, a 24 μL aliquot of a ATP/peptide master mix (final concentration; ATP 10 μM, polyGAT 100 nM) in kinase buffer (10 mM Tris-HCl pH 7.5, 10 mM MgCl2, 200 μM […], 5 mM DTT, 0.01% Triton X-100, and 0.2 mg/ml casein) is added to each well. Next, […] of a 4-fold, 40× compound titration in 100% DMSO solvent is added, followed by adding 15 μL of BTK enzyme mix in 1× kinase buffer (with a final concentration of 0.25 nM). The assay is incubated for 30 minutes before being stopped with […] of a 50 mM EDTA solution. Aliquots (5 μL) of the kinase reaction are transferred to a low volume white 384 well plate (Coming 3674), and […] of a 2× detection buffer (Invitrogen PV3574, with 4 nM Tb-PY20 antibody, Invitrogen PV3552) is added. The plate is covered and incubated for 45 minutes at room temperature. Time resolved fluorescence (TRF) on Molecular Devices M5 (332 nm excitation; 488 nm emission; 518 nm fluorescein emission) is measured.

For assay [2], the target named is T1, BTK. Put plainly: In Vitro PD Assay in Human Whole Blood (pBTK assay). In kind it is cell-based. The settings on record: 37° C. for 30 min, 50% inhibition of ECL signal. The procedure:
Human heparinized venous blood was purchased from Bioreclamation, Inc. or SeraCare Life Sciences and shipped overnight. Whole blood was aliquoted into 96-well plate and “spiked” with serial dilutions of test compound in DMSO or with DMSO without drug. The final concentration of DMSO in all wells was 0.1%. The plate was incubated at 37° C. for 30 min. Lysis buffer containing protease and phosphatase inhibitors was added to the drug-containing samples and one of the DMSO-only samples (+PPi, high control), while lysis buffer containing protease inhibitors was added to the other DMSO-only samples (−PPi, low control). All of the lysed whole blood samples were subjected to the total BTK capture and phosphotyrosine detection method described in US20160311802, incorporated herein by reference.

T1 sequence (Q06187 whole entry): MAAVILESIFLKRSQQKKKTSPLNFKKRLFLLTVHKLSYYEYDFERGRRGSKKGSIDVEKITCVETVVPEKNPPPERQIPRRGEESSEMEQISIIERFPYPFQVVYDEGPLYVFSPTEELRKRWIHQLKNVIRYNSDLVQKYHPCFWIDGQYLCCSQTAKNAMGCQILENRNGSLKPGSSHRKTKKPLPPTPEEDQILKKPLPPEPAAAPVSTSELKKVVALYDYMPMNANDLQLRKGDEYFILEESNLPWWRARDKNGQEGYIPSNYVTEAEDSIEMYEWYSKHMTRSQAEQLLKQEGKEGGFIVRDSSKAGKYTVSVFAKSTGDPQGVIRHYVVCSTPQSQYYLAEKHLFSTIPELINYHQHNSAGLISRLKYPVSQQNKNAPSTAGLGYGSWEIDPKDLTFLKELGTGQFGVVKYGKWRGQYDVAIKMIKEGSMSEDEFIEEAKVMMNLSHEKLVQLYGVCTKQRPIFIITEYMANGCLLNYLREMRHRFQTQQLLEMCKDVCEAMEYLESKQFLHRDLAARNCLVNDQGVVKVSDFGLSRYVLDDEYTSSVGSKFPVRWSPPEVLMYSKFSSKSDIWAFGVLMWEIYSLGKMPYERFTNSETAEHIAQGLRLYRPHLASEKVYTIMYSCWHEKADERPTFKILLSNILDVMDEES

For the compound `CC(C)(C)c1noc(C(=O)NCc2ccc(-c3ccnc(NC(=O)C4CC4)c3)cc2OC(F)(F)F)n1` [Compound 80, 3-(tert-butyl)-N-(4-(2-(cyclopropanecarboxamido)pyridin-4-yl)-2-(trifluoromethoxy)benzyl)-1,2,4-oxadiazole-5-carboxamide], the IC50 against BTK [1] was no more than 1 nM; at BTK [2] it was 500 to 10000 nM.
Take `Cc1cc(-c2ccnc(NC(=O)C3CC3)c2)ccc1CNC(=O)c1ccn(C(C)(C)C)n1` [Compound 99, 1-(tert-butyl)-N-(4-(2-(cyclopropanecarboxamido)pyridin-4-yl)-2-methylbenzyl)-1H-pyrazole-3-carboxamide]: the IC50 on BTK [1] lay within 1 to 10 nM; against BTK [2], 500 to 10000 nM.
Regarding `CC(C)(C)c1noc(C(=O)NCc2ccc(-c3ccnc(NC(=O)C4CC4)c3)cc2C(F)(F)F)n1` [Compound 17, 3-(tert-butyl)-N-(4-(2-(cyclopropanecarboxamido)pyridin-4-yl)-2-(trifluoromethyl)benzyl)-1,2,4-oxadiazole-5-carboxamide], the IC50 is no more than 1 nM at BTK [1] and no more than 100 nM at BTK [2].
On the same counts, the results for `Cc1c(-c2ccnc(NC(=O)C3CC3)c2)ccc(CNC(=O)c2noc(C(C)(C)C)n2)c1F` [Compound 101, 5-(tert-butyl)-N-(4-(2-(cyclopropanecarboxamido)pyridin-4-yl)-2-fluoro-3-methylbenzyl)-1,2,4-oxadiazole-3-carboxamide] are no more than 1 nM and 500 to 10000 nM.
The corresponding values for `CC(C)(C)n1cc(F)c(C(=O)NCc2ccc(-c3ccnc(NC(=O)C4CC4)c3)c(F)c2C2CC2)n1` [Compound 29, 1-(tert-butyl)-N-(4-(2-(cyclopropanecarboxamido)pyridin-4-yl)-2-cyclopropyl-3-fluorobenzyl)-4-fluoro-1H-pyrazole-3-carboxamide] are 1 to 10 nM and 500 to 10000 nM.
The corresponding values for `C[C@@H](NC(=O)c1noc(C(C)(C)C)n1)c1ccc(-c2ccnc(NC(=O)C3CC3)c2)cc1C(F)(F)F` [Compound 78, (R)-5-(tert-butyl)-N-(1-(4-(2-(cyclopropanecarboxamido)pyridin-4-yl)-2-(trifluoromethyl)phenyl)ethyl)-1,2,4-oxadiazole-3-carboxamide] are no more than 1 nM and 100 to 500 nM.
For the compound `C[C@@H](NC(=O)c1nc(C(C)(C)C)no1)c1ccc(-c2ccnc(NC(=O)C3CC3)c2)cc1Cl` [Compound 91, (R)-3-(tert-butyl)-N-(1-(2-chloro-4-(2-(cyclopropanecarboxamido)pyridin-4-yl)phenyl)ethyl)-1,2,4-oxadiazole-5-carboxamide], the IC50 against BTK [1] was no more than 1 nM; at BTK [2], 100 to 500 nM.
`Cc1cc(-c2ccnc(NC(=O)C3CC3)c2)ccc1CNC(=O)c1nc(C(C)(C)CF)no1` [Compound 39, N-(4-(2-(cyclopropanecarboxamido)pyridin-4-yl)-2-methylbenzyl)-3-(1-fluoro-2-methylpropan-2-yl)-1,2,4-oxadiazole-5-carboxamide]: the values for the IC50 against BTK [1] and against BTK [2] were no more than 1 nM and 100 to 500 nM, respectively.
`Cc1cc(-c2ccnc(NC(=O)C3CC3)c2)c(F)cc1CNC(=O)c1nc(C(C)(C)C)no1` [Compound 12, 3-(tert-butyl)-N-(4-(2-(cyclopropanecarboxamido)pyridin-4-yl)-5-fluoro-2-methylbenzyl)-1,2,4-oxadiazole-5-carboxamide]: the IC50 at BTK [1] is no more than 1 nM; on BTK [2], 100 to 500 nM.
With `CC(C)(C)c1nc(C(=O)N[C@H]2CCCOc3cc(-c4ccnc(NC(=O)C5CC5)c4)ccc32)no1` [Compound 53, (S)-5-(tert-butyl)-N-(8-(2-(cyclopropanecarboxamido)pyridin-4-yl)-2,3,4,5-tetrahydrobenzo[b]oxepin-5-yl)-1,2,4-oxadiazole-3-carboxamide], the IC50 is 10 to 1000 nM against BTK [1] and greater than 10000 nM against BTK [2].
On the same counts, the results for `Cc1cc(CNC(=O)c2noc(C(C)(C)C)n2)c(F)cc1-c1ccnc(NC(=O)C2CC2)c1` [Compound 102, 5-(tert-butyl)-N-(4-(2-(cyclopropanecarboxamido)pyridin-4-yl)-2-fluoro-5-methylbenzyl)-1,2,4-oxadiazole-3-carboxamide] are 10 to 1000 nM and 500 to 10000 nM.
On to `Cc1cc(-c2ccnc(NC(=O)[C@@H]3C[C@H]3F)c2)ccc1CNC(=O)c1noc(C(C)(C)C)n1` [Compound 38, 5-(tert-butyl)-N-(4-(2-((1S,2R)-2-fluorocyclopropane-1-carboxamido)pyridin-4-yl)-2-methylbenzyl)-1,2,4-oxadiazole-3-carboxamide], for which the IC50 against BTK [1] is no more than 1 nM; at BTK [2] it was 500 to 10000 nM.
On the same counts, the results for `Cc1c(-c2ccnc(NC(=O)C3CC3)c2)ccc(CNC(=O)c2nc(C(C)(C)C)no2)c1F` [Compound 100, 3-(tert-butyl)-N-(4-(2-(cyclopropanecarboxamido)pyridin-4-yl)-2-fluoro-3-methylbenzyl)-1,2,4-oxadiazole-5-carboxamide] are no more than 1 nM and 500 to 10000 nM.
For `CC(C)(C)c1nc(C(=O)NCc2ccc(-c3ccnc(NC(=O)C4CC4)c3)c(F)c2C2CC2)no1` [Compound 33, 5-(tert-butyl)-N-(4-(2-(cyclopropanecarboxamido)pyridin-4-yl)-2-cyclopropyl-3-fluorobenzyl)-1,2,4-oxadiazole-3-carboxamide], the IC50 was no more than 1 nM against BTK [1] and 500 to 10000 nM against BTK [2].
On the same counts, the results for `Cc1c(CNC(=O)c2noc(C(C)(C)C)n2)ccc(-c2ccnc(NC(=O)C3CC3)c2)c1Cl` [Compound 84, 5-(tert-butyl)-N-(3-chloro-4-(2-(cyclopropanecarboxamido)pyridin-4-yl)-2-methylbenzyl)-1,2,4-oxadiazole-3-carboxamide] are no more than 1 nM and 100 to 500 nM.
On the same counts, the results for `CC(C)(C)c1noc(C(=O)NCc2ccc(-c3ccnc(NC(=O)C4CC4)c3)c(F)c2C(F)(F)F)n1` [Compound 69, 3-(tert-butyl)-N-(4-(2-(cyclopropanecarboxamido)pyridin-4-yl)-3-fluoro-2-(trifluoromethyl)benzyl)-1,2,4-oxadiazole-5-carboxamide] are no more than 1 nM and 100 to 500 nM.
In the case of `Cc1cc(-c2ccnc(NC(=O)C3CC3)c2)ccc1CNC(=O)c1noc(C(C)(C)CF)n1` [Compound 41, N-(4-(2-(cyclopropanecarboxamido)pyridin-4-yl)-2-methylbenzyl)-5-(1-fluoro-2-methylpropan-2-yl)-1,2,4-oxadiazole-3-carboxamide], the IC50 against BTK [1] was no more than 1 nM; against BTK [2], 500 to 10000 nM.
`CC(C)(C)c1noc(C(=O)N[C@@H]2CCCCc3cc(-c4ccnc(NC(=O)C5CC5(F)F)c4)ccc32)n1` (stereo partly drawn) [Compound 58, 3-(tert-butyl)-N-((5R)-2-(2-(2,2-difluorocyclopropane-1-carboxamido)pyridin-4-yl)-6,7,8,9-tetrahydro-5H-benzo[7]annulen-5-yl)-1,2,4-oxadiazole-5-carboxamide]: the values for the IC50 at BTK [1] and at BTK [2] were no more than 1 nM and 500 to 10000 nM, respectively.
The corresponding values for `CC(C)(C)c1noc(C(=O)NCc2ccc(-c3ccnc(NC(=O)C4CC4)c3)c(F)c2Cl)n1` [Compound 15, 3-(tert-butyl)-N-(2-chloro-4-(2-(cyclopropanecarboxamido)pyridin-4-yl)-3-fluorobenzyl)-1,2,4-oxadiazole-5-carboxamide] are no more than 1 nM and no more than 100 nM.
As to `Cc1cc(-c2ccnc(NC(=O)C3CC3)c2)c(F)cc1CNC(=O)c1noc(C(C)(C)C)n1` [Compound 13, 5-(tert-butyl)-N-(4-(2-(cyclopropanecarboxamido)pyridin-4-yl)-5-fluoro-2-methylbenzyl)-1,2,4-oxadiazole-3-carboxamide], the IC50 is no more than 1 nM against BTK [1] and no more than 100 nM on BTK [2].
Turning to `Cc1c([C@@H](C)NC(=O)c2noc(C(C)(C)C)n2)ccc(-c2ccnc(NC(=O)C3CC3)c2)c1F` [Compound 71, (R)-5-(tert-butyl)-N-(1-(4-(2-(cyclopropanecarboxamido)pyridin-4-yl)-3-fluoro-2-methyphenyl)ethyl)-1,2,4-oxadiazole-3-carboxamide], the IC50 against BTK [1] was no more than 1 nM; at BTK [2], 500 to 10000 nM.
The corresponding values for `Cc1cc(-c2cc(NC(=O)C3CC3)ncc2Cl)ccc1CNC(=O)c1noc(C(C)(C)C)n1` [Compound 7, 5-(tert-butyl)-N-(4-(5-chloro-2-(cyclopropanecarboxamido)pyridin-4-yl)-2-methylbenzyl)-1,2,4-oxadiazole-3-carboxamide] are no more than 1 nM and 100 to 500 nM.
